Data as given in patent US20080261310A1, “IN VITRO ROOTING OF HOODIA PLANTS” (CONOPCO, INC., D/B/A/ UNILEVER, priority 2007, published 2008).

Test system: Hoodia explants
Assay: In vitro rooting of Hoodia explants on rooting media (basal salts, phytohormones, charcoal)
Type: cell-based
Conditions: experiment 11 medium with just IBA or just NAA alone
Procedure: The explants are placed onto rooting medium 1-2 cm deep in the medium in an erect position. The distance between the explants is the same as for the multiplication phase, although they may be placed closer (i.e. about 0.5-1 cm apart), as they are no longer producing new shoots. The rooted plans are kept in the rooting medium under conditions of darkness at temperature of 26±2° C., typically for about 2-3 weeks, and later are placed under light until roots develop before going into the greenhouse for hardening. In all the multiplication and later rooting trials, the experiments were carried out in a randomised factorial design with at least four replicates per treatment. The student's t-test was used to determine significant difference between the phytohormone treatments. P values ≦0.05 was considered significant. This example investigated various concentrations basal salt medium, vitamins (those in M&S medium, always included at full strength), and various phytohormones on rooting. Each experiment was replicated four times and statistical analysis has been carried out as described above.

SMILES | root formation when experiment 11 was repeated with a single auxin
O=C(O)CCCc1c[nH]c2ccccc12 [IBA, indole-3-butyric acid] | no roots could be obtained
O=C(O)Cc1cccc2ccccc12 [NAA, α-naphthalene acetic acid] | no roots could be obtained
